# Laboratory results published in patent US8192962B2, “Processes for detecting toxic substances” (Daikin Industries, Ltd., priority 2001, dated 2012).
# System: Stress protein genes
# Experiment: DNA chip mRNA expression in yeast, stress protein genes (Table 6)
# Assay type: cell-based, Saccharomyces cerevisiae S288C
# Summary of the method: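 Expression change after 2 h toxicant exposure (growth-inhibiting, sub-lethal) of log-phase S. cerevisiae S288C at 25° C. Oligo-dT-purified mRNA was labeled with Cy3-dUTP or Cy5-dUTP and hybridized >12 h at 65° C. to a genome-wide chip; ratio of scanned fluorescence to control.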
compound,measurement,setting,value
"Oc1cc(Cl)c(Cl)cc1Cl [(6), 2,4,5-trichlorophenol]",The level of expressed mRNA in the presence of chemical substance/The level of expressed mRNA in the absence of chemical substance,yeast gene YAL005C,1.6
same,The level of expressed mRNA in the presence of chemical substance/The level of expressed mRNA in the absence of chemical substance,yeast gene YAL015C,0.7
same,The level of expressed mRNA in the presence of chemical substance/The level of expressed mRNA in the absence of chemical substance,yeast gene YBL075C,0.8
same,The level of expressed mRNA in the presence of chemical substance/The level of expressed mRNA in the absence of chemical substance,yeast gene YBL093C,0.8
same,The level of expressed mRNA in the presence of chemical substance/The level of expressed mRNA in the absence of chemical substance,yeast gene YBR044C,1.0
same,The level of expressed mRNA in the presence of chemical substance/The level of expressed mRNA in the absence of chemical substance,yeast gene YBR054W,1.1
same,The level of expressed mRNA in the presence of chemical substance/The level of expressed mRNA in the absence of chemical substance,yeast gene YBR067C,1.1
same,The level of expressed mRNA in the presence of chemical substance/The level of expressed mRNA in the absence of chemical substance,yeast gene YBR072W,32.2
same,The level of expressed mRNA in the presence of chemical substance/The level of expressed mRNA in the absence of chemical substance,yeast gene YBR126C,2.9
same,The level of expressed mRNA in the presence of chemical substance/The level of expressed mRNA in the absence of chemical substance,yeast gene YBR169C,4.9
same,The level of expressed mRNA in the presence of chemical substance/The level of expressed mRNA in the absence of chemical substance,yeast gene YCL035C,5.1
same,The level of expressed mRNA in the presence of chemical substance/The level of expressed mRNA in the absence of chemical substance,yeast gene YCR021C,2.2
same,The level of expressed mRNA in the presence of chemical substance/The level of expressed mRNA in the absence of chemical substance,yeast gene YCR060W,3.3
same,The level of expressed mRNA in the presence of chemical substance/The level of expressed mRNA in the absence of chemical substance,yeast gene YCR083W,2.4
same,The level of expressed mRNA in the presence of chemical substance/The level of expressed mRNA in the absence of chemical substance,yeast gene YDL022W,2.1
same,The level of expressed mRNA in the presence of chemical substance/The level of expressed mRNA in the absence of chemical substance,yeast gene YDL025C,0.6
same,The level of expressed mRNA in the presence of chemical substance/The level of expressed mRNA in the absence of chemical substance,yeast gene YDR033W,6.7
same,The level of expressed mRNA in the presence of chemical substance/The level of expressed mRNA in the absence of chemical substance,yeast gene YDR077W,1.0
same,The level of expressed mRNA in the presence of chemical substance/The level of expressed mRNA in the absence of chemical substance,yeast gene YDR098C,1.1
same,The level of expressed mRNA in the presence of chemical substance/The level of expressed mRNA in the absence of chemical substance,yeast gene YDR155C,1.5
same,The level of expressed mRNA in the presence of chemical substance/The level of expressed mRNA in the absence of chemical substance,yeast gene YDR258C,2.4
same,The level of expressed mRNA in the presence of chemical substance/The level of expressed mRNA in the absence of chemical substance,yeast gene YDR293C,0.9
same,The level of expressed mRNA in the presence of chemical substance/The level of expressed mRNA in the absence of chemical substance,yeast gene YDR436W,1.1
same,The level of expressed mRNA in the presence of chemical substance/The level of expressed mRNA in the absence of chemical substance,yeast gene YDR513W,2.1
same,The level of expressed mRNA in the presence of chemical substance/The level of expressed mRNA in the absence of chemical substance,yeast gene YDR519W,1.3
same,The level of expressed mRNA in the presence of chemical substance/The level of expressed mRNA in the absence of chemical substance,yeast gene YEL030W,0.6
same,The level of expressed mRNA in the presence of chemical substance/The level of expressed mRNA in the absence of chemical substance,yeast gene YEL039C,1.5
same,The level of expressed mRNA in the presence of chemical substance/The level of expressed mRNA in the absence of chemical substance,yeast gene YER042W,1.6
same,The level of expressed mRNA in the presence of chemical substance/The level of expressed mRNA in the absence of chemical substance,yeast gene YER057C,1.6
same,The level of expressed mRNA in the presence of chemical substance/The level of expressed mRNA in the absence of chemical substance,yeast gene YER103W,1.7
same,The level of expressed mRNA in the presence of chemical substance/The level of expressed mRNA in the absence of chemical substance,yeast gene YER125W,0.7
same,The level of expressed mRNA in the presence of chemical substance/The level of expressed mRNA in the absence of chemical substance,yeast gene YFL014W,9.3
same,The level of expressed mRNA in the presence of chemical substance/The level of expressed mRNA in the absence of chemical substance,yeast gene YFL016C,1.3
same,The level of expressed mRNA in the presence of chemical substance/The level of expressed mRNA in the absence of chemical substance,yeast gene YFL020C,2.0
same,The level of expressed mRNA in the presence of chemical substance/The level of expressed mRNA in the absence of chemical substance,yeast gene YFR052W,3.2
same,The level of expressed mRNA in the presence of chemical substance/The level of expressed mRNA in the absence of chemical substance,yeast gene YGL073W,1.9
same,The level of expressed mRNA in the presence of chemical substance/The level of expressed mRNA in the absence of chemical substance,yeast gene YGL115W,1.2
same,The level of expressed mRNA in the presence of chemical substance/The level of expressed mRNA in the absence of chemical substance,yeast gene YGL181W,1.9
same,The level of expressed mRNA in the presence of chemical substance/The level of expressed mRNA in the absence of chemical substance,yeast gene YGR088W,1.3
same,The level of expressed mRNA in the presence of chemical substance/The level of expressed mRNA in the absence of chemical substance,yeast gene YHL028W,1.8
same,The level of expressed mRNA in the presence of chemical substance/The level of expressed mRNA in the absence of chemical substance,yeast gene YHL046C,0.8
same,The level of expressed mRNA in the presence of chemical substance/The level of expressed mRNA in the absence of chemical substance,yeast gene YHR030C,0.9
same,The level of expressed mRNA in the presence of chemical substance/The level of expressed mRNA in the absence of chemical substance,yeast gene YHR057C,1.3
same,The level of expressed mRNA in the presence of chemical substance/The level of expressed mRNA in the absence of chemical substance,yeast gene YHR104W,1.2
same,The level of expressed mRNA in the presence of chemical substance/The level of expressed mRNA in the absence of chemical substance,yeast gene YIL011W,0.7
same,The level of expressed mRNA in the presence of chemical substance/The level of expressed mRNA in the absence of chemical substance,yeast gene YIL033C,2.0
same,The level of expressed mRNA in the presence of chemical substance/The level of expressed mRNA in the absence of chemical substance,yeast gene YIR037W,2.7
same,The level of expressed mRNA in the presence of chemical substance/The level of expressed mRNA in the absence of chemical substance,yeast gene YIR038C,2.5
same,The level of expressed mRNA in the presence of chemical substance/The level of expressed mRNA in the absence of chemical substance,yeast gene YJL128C,1.3
same,The level of expressed mRNA in the presence of chemical substance/The level of expressed mRNA in the absence of chemical substance,yeast gene YJL158C,0.5
same,The level of expressed mRNA in the presence of chemical substance/The level of expressed mRNA in the absence of chemical substance,yeast gene YJL159W,1.8
same,The level of expressed mRNA in the presence of chemical substance/The level of expressed mRNA in the absence of chemical substance,yeast gene YJL165C,0.5
same,The level of expressed mRNA in the presence of chemical substance/The level of expressed mRNA in the absence of chemical substance,yeast gene YJR045C,1.2
same,The level of expressed mRNA in the presence of chemical substance/The level of expressed mRNA in the absence of chemical substance,yeast gene YJR090C,1.2
same,The level of expressed mRNA in the presence of chemical substance/The level of expressed mRNA in the absence of chemical substance,yeast gene YKL161C,2.0
same,The level of expressed mRNA in the presence of chemical substance/The level of expressed mRNA in the absence of chemical substance,yeast gene YKL163W,1.1
same,The level of expressed mRNA in the presence of chemical substance/The level of expressed mRNA in the absence of chemical substance,yeast gene YKL164C,1.4
same,The level of expressed mRNA in the presence of chemical substance/The level of expressed mRNA in the absence of chemical substance,yeast gene YKL210W,1.4
same,The level of expressed mRNA in the presence of chemical substance/The level of expressed mRNA in the absence of chemical substance,yeast gene YKR053C,1.1
same,The level of expressed mRNA in the presence of chemical substance/The level of expressed mRNA in the absence of chemical substance,yeast gene YLL024C,1.0
same,The level of expressed mRNA in the presence of chemical substance/The level of expressed mRNA in the absence of chemical substance,yeast gene YLL026W,1.9
same,The level of expressed mRNA in the presence of chemical substance/The level of expressed mRNA in the absence of chemical substance,yeast gene YLL039C,1.5
same,The level of expressed mRNA in the presence of chemical substance/The level of expressed mRNA in the absence of chemical substance,yeast gene YLL060C,1.4
same,The level of expressed mRNA in the presence of chemical substance/The level of expressed mRNA in the absence of chemical substance,yeast gene YLR006C,0.9
same,The level of expressed mRNA in the presence of chemical substance/The level of expressed mRNA in the absence of chemical substance,yeast gene YLR109W,2.1
same,The level of expressed mRNA in the presence of chemical substance/The level of expressed mRNA in the absence of chemical substance,yeast gene YLR259C,0.9
same,The level of expressed mRNA in the presence of chemical substance/The level of expressed mRNA in the absence of chemical substance,yeast gene YML007W,0.5
same,The level of expressed mRNA in the presence of chemical substance/The level of expressed mRNA in the absence of chemical substance,yeast gene YML070W,2.2
same,The level of expressed mRNA in the presence of chemical substance/The level of expressed mRNA in the absence of chemical substance,yeast gene YMR021C,2.2
same,The level of expressed mRNA in the presence of chemical substance/The level of expressed mRNA in the absence of chemical substance,yeast gene YMR173W,5.0
same,The level of expressed mRNA in the presence of chemical substance/The level of expressed mRNA in the absence of chemical substance,yeast gene YMR186W,1.3
same,The level of expressed mRNA in the presence of chemical substance/The level of expressed mRNA in the absence of chemical substance,yeast gene YNL064C,0.8
same,The level of expressed mRNA in the presence of chemical substance/The level of expressed mRNA in the absence of chemical substance,yeast gene YNL160W,5.8
same,The level of expressed mRNA in the presence of chemical substance/The level of expressed mRNA in the absence of chemical substance,yeast gene YNL241C,0.9
same,The level of expressed mRNA in the presence of chemical substance/The level of expressed mRNA in the absence of chemical substance,yeast gene YNR076W,1.2
same,The level of expressed mRNA in the presence of chemical substance/The level of expressed mRNA in the absence of chemical substance,yeast gene YOL064C,1.4
same,The level of expressed mRNA in the presence of chemical substance/The level of expressed mRNA in the absence of chemical substance,yeast gene YOL161C,1.0
same,The level of expressed mRNA in the presence of chemical substance/The level of expressed mRNA in the absence of chemical substance,yeast gene YOR008C,1.1
same,The level of expressed mRNA in the presence of chemical substance/The level of expressed mRNA in the absence of chemical substance,yeast gene YOR009W,0.9
same,The level of expressed mRNA in the presence of chemical substance/The level of expressed mRNA in the absence of chemical substance,yeast gene YOR010C,0.5
same,The level of expressed mRNA in the presence of chemical substance/The level of expressed mRNA in the absence of chemical substance,yeast gene YOR027W,1.6
same,The level of expressed mRNA in the presence of chemical substance/The level of expressed mRNA in the absence of chemical substance,yeast gene YOR208W,1.8
same,The level of expressed mRNA in the presence of chemical substance/The level of expressed mRNA in the absence of chemical substance,yeast gene YPL059W,1.3
same,The level of expressed mRNA in the presence of chemical substance/The level of expressed mRNA in the absence of chemical substance,yeast gene YPL106C,1.6
same,The level of expressed mRNA in the presence of chemical substance/The level of expressed mRNA in the absence of chemical substance,yeast gene YPL140C,0.3
same,The level of expressed mRNA in the presence of chemical substance/The level of expressed mRNA in the absence of chemical substance,yeast gene YPL194W,1.1
same,The level of expressed mRNA in the presence of chemical substance/The level of expressed mRNA in the absence of chemical substance,yeast gene YPL223C,1.5
same,The level of expressed mRNA in the presence of chemical substance/The level of expressed mRNA in the absence of chemical substance,yeast gene YPL240C,1.2
same,The level of expressed mRNA in the presence of chemical substance/The level of expressed mRNA in the absence of chemical substance,yeast gene YPR005C,0.8
